The record followed here is patent US5434174A, “Isoxazole derivatives for the treatment of irritable bowel syndrome” (priority 1993, dated 1995).

Counter-ions that a name gives are not always drawn. Like-named read-outs stand apart in the source and are kept apart here.

One experiment concerns brain 5-HIAA levels. The experiment in a line: In vivo lowering of brain 5-HIAA levels. Set-up: species or system rat (male Sprague-Dawley). The note with it: Rattus norvegicus, 1 h, minimum effective dose lowering brain 5-HIAA, one hour after treatment, read-out: 5-HIAA MED. How it is done:
(§1) In vivo Methods to Show 5HT1A Activity
(§2) Compounds of this invention were also examined for their in vivo effects on brain 5-HIAA and serum corticosterone levels. Male Sprague-Dawley rats weighing 150-200 g were administered subcutaneously or orally with aqueous solutions of the test compound. One hour after treatment, the rats were decapitated and trunk blood collected. The blood was allowed to clot and then was centrifuged to separate the serum. The concentration of corticosterone in the serum was determined by the spectrofluorometric method of Solem, J. H.; Brinck-Johnsen, T., Scand. J. Clin. Invest, [Suppl. 80], 17, 1 (1965). The whole brains from the decapitated rats were quickly removed, frozen on dry ice, and stored at -15° C. 5-HIAA concentrations were measured by liquid chromatography with electrochemical detection as described by Fuller, R. W.; Snoddy, H. D.; Perry, K. W., Life Sci. 40, 1921 (1987).
(§3) The results in columns 6-8 are indicative of 5-HT1A agonist activity.

The test system of experiment [1] is serum corticosterone levels. The experiment is described as follows: In vivo elevation of serum corticosterone levels. Set-up: species or system rat (male Sprague-Dawley). Conditions: Rattus norvegicus, sc, 1 h, read-out: Corticosterone MED. The protocol:
as §1, §2, §3

The target of the next experiment is T1, 5HT1A receptors (Rattus norvegicus, UniProt P19327).
T1 construct: synaptosomal membranes isolated from cerebral cortex; from tissue; host or cells: rat cerebral cortex, crude synaptosomal membranes
T1 sequence (P19327 1-422): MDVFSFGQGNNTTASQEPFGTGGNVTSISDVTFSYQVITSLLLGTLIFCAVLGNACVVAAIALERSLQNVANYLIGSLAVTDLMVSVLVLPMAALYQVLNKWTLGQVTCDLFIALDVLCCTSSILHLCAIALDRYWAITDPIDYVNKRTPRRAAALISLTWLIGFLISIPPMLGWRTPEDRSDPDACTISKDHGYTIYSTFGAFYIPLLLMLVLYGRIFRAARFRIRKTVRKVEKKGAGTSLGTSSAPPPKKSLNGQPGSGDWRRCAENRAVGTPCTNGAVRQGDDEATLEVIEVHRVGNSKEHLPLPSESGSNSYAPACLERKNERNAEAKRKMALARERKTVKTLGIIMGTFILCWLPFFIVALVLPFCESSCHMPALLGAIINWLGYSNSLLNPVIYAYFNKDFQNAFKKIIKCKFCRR
The experiment in a line: In vitro binding to 5HT1A receptors (inhibition of 3H-8-OH-DPAT binding, rat cerebral cortex synaptosomal membranes). The arrangement: species or system rat (male Sprague-Dawley).
Text: Sites specifically labeled by tritiated 8-hydroxy-2-dipropylamino-1,2,3,4-tetrahydronaphthalene (^3 H-8-OH-DPAT) have been identified as 5-HT1A receptors. This general procedure is set forth in Wong et al., J. Neural Transm. 71: 207-218 (1988).
In vitro Binding Methods to 5HT1A Receptors
Male Sprague-Dawley rats (110-150 g) from Harlan Industries (Cumberland, Ind.) were fed Purina Chow ad libitum for at least 3 days before being used in the studies. Rats were killed by decapitation. The brains were rapidly removed, and the cerebral cortices were dissected out at 4° C.
Brain tissues were homogenized in 0.32M sucrose. After centrifugation at 1000× g for 10 min. and then at 17000× g for 20 min., a crude synaptosomal fraction was sedimented. The pellet was suspended in 100 vol. of 50 mM Tris-HCl, pH 7.4, incubated at 37° C. for 10 min., and centrifuged at 50000× g for 10 min. The process was repeated and the final pellet was suspended in ice-chilled 50 mM Tris-HCl, pH 7.4.
Binding of ^3 H-8-OH-DPAT was performed according to the previously described method [Wong et al., J. Neural Transm. 64: 251-269 (1985)]. Briefly, synaptosomal membranes isolated from cerebral cortex were incubated at 37° C. for 10 min. in 2 ml of 50 mM Tris-HCl, pH 7.4; […]; 0.6 mM ascorbic acid; 5 mM CaCl2; 2 nM 3H-8-OH-DPATand 0.1 to 1000 nm of the compound of interest. Binding was terminated by filtering samples under reduced pressure through glass fiber (GFB) filters. The filters were washed twice with 5 ml of ice cold buffer and placed in scintillation vials with 10 ml of PCS (Amersham/Searle) scintillation fluid. Radioactivity was measured with a liquid scintillation spectrometer. Unlabeled 8-OH-DPAT at […] was also included in separate samples to establish non-specific binding. Specific binding of ^3 H-8-OH-DPAT is defined as the difference of radioactivity bound in the absence and in the presence of 10 μM unlabeled 8-OH-DPAT.
as §3

Experiment [2] has as its target T2, muscarinic (M1) receptors (Rattus norvegicus, UniProt P08482).
T2 construct: Cerebral cortical membranes were prepared by differential centrifugation; from tissue; host or cells: rat cerebral cortex membranes
T2 sequence (P08482 1-460): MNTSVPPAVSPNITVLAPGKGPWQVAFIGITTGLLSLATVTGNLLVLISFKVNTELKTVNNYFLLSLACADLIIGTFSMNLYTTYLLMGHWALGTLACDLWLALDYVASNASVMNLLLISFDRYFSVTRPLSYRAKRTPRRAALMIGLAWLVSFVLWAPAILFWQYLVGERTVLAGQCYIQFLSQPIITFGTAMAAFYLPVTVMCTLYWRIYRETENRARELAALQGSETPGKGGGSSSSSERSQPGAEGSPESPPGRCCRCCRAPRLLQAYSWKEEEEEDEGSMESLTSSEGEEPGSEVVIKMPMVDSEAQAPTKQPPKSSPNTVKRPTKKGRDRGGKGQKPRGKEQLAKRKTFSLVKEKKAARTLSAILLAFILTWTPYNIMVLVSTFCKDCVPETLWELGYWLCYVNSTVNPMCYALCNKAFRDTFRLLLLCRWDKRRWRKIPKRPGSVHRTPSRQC
The experiment is described as follows: In vitro [3H]-pirenzepine binding (muscarinic M1, rat cerebral cortical membranes). Set-up: species or system rat (male Sprague-Dawley). How it is done: In vitro Binding Methods for [3H]-pirenzepine Binding
For in vitro 3H-pirenzepine binding, male Sprague-Dawley (Harlan Sprague Dawley, Indianapolis, Ind.) rats weighing 100-150 gm were sacrificed by decapitation, the brains were quickly removed, and the cerebral cortex was dissected from the brain. Cerebral cortical membranes were prepared by differential centrifugation, washed twice and frozen until used.
The inhibition of binding of 3H-pirenzepine to receptors was determined by adding study drug, 1 nM 3H-pirenzepine (87.0 Ci/mmol, New England Nuclear, Boston, Mass.), and about 100 ug cerebral cortical membranes in 1 ml total volume of 20 mM tris-Cl buffer, pH 7.4, containing 1 mM MnCl2. After incubation for 1 hour at 25° C., the homogenates were filtered through glass filters (Whatman, GF/c) with vacuum, the filters were washed 3 times with 2 ml cold buffer, and placed in scintillation vials containing 10 ml scintillation fluid (Ready Protein +, Beckman, Fullerton, Calif.).
Radioactivity trapped on the filters was determined by liquid, scintillation spectrometry. Nonspecific binding was determined using 1 uM atropine.
(§4) Table II summarizes the effect of typical formula I compounds on muscarinic (M1) receptors.

In experiment [3] the test system is pylorus ligated rats (gastric acid secretion). It is filed as in vivo, rat (male Sprague-Dawley). Conditions: 2 h. The protocol: Gastric acid inhibition was determined in pylorus ligated rats following the procedure by Shay (Shay, H., Komarov, A. A. and Greenstein, M: Effects of vagotomy in the rat, Arch. Surg. 59: 210-226, 1949). Male Sprague-Dawley rats weighing approximately 200 gm were starved 24 hours prior to using. Water was provided ad libitrim. Under light ether anesthesia the pylorus was ligated and simultaneously the rats were dosed with the compound either i.p. or s.c. and the rats were allowed to recover from anesthetic. Acid was accumulated for 2 hours. At the end of this period, rats were killed. Stomach contents were removed, measured and titrated to a pH endpoint of 7.0.
as §3

Experiment [4] relates to rat colon (carbachol-induced contraction). The experiment in a line: Reversal of carbachol-induced hypertone (contraction of rat colon strips in vitro). The arrangement: species or system rat (male Sprague-Dawley). The note with it: colonic smooth muscle in vitro, read-out: Blockade of carbachol-induced contraction of rat colon (IC50). The protocol:
Reversal of Carbachol-Induced Hypertone
Male Spraque-Dawley rats weighing 300-350 gm were starved for 24 hours. The rats were brought to the lab and decapitated and colons were removed immediately. Fecal content was washed and longitudinal strips 4 cm long were placed in organ baths under 1 gm tension using Grass FT03 transducers. Tissues were allowed to equilibrate and were gassed with 95% oxygen and 5% carbon dioxide. The tissues were then contracted with carbachol to produce a tonic response. Then the drug solutions were added to see relaxation. Percent relaxation was calculated from the pre-treatment control period. For many compounds more than one concentration of the drug was tested. In these situations an IC50 was calculated, which is the dose which inhibited carbachol induced response by 50%.
as §4

Where [5] appears, read: inhibition of 3H-8-OH-DPAT binding, rat cerebral cortex, read-out: Radioligand binding data (IC50, nM) 5-HT1a.
Where [6] appears, read: inhibition of 3H-pirenzepine binding, rat cerebral cortical membranes, read-out: Radioligand binding data (IC50, nM) M1.

Broadly, the IC50 is the concentration that inhibits the measured activity by half. On to `CCCN(CCC)C1CCc2cccc(-c3oncc3C)c2C1.O=C(O)/C=C\C(=O)O` (centres unmarked) [Example 3, 2-(Di-n-propylamino)-8-(4-methylisoxazol-5-yl)-1,2,3,4-tetrahydronaphthalene maleate], for which the results for the minimal effective dose (in the experiment on brain 5-HIAA levels (po); with brain 5-HIAA levels (sc); in experiment [1]) were greater than 10 mg/kg, 0.3 mg/kg and 1 mg/kg, respectively. Also, the concentration for half-maximal inhibition (IC50) came to 1.9 nM at 5HT1A receptors (setting [5]) and 190 nM in experiment [2]. For the same compound, in experiment [3], the “Gastric Acid Inhibition %” value is 95.7%.
Regarding `CCCN(CCC)C1CCc2cccc(-c3cc(C)no3)c2C1.O=C(O)/C=C\C(=O)O` (centres unmarked) [Example 5, 2-(Di-n-propylamino)-8-(3-methylisoxazol-5-yl)-1,2,3,4-tetrahydronaphthalene maleate], the minimal effective dose in the experiment with brain 5-HIAA levels (sc) was 1 mg/kg; in experiment [1] it was greater than 1 mg/kg. Besides, the IC50 at 5HT1A receptors (setting [5]) came out at 1.3 nM; in experiment [2], 107 nM. In addition, in experiment [3], the “Gastric Acid Inhibition %” value came to 95.8%.
Take `CCCN(CCC)[C@@H]1CCc2cccc(-c3ccno3)c2C1.O=C(O)/C=C\C(=O)O` [Example 10, R-(+)-8-(isoxazol-5-yl)-2-dipropylamino-1,2,3,4-tetrahydronaphthalene maleate]: the minimal effective dose with brain 5-HIAA levels (po) came out at 10 mg/kg. Moreover, the half-maximal inhibitory concentration (IC50) at 5HT1A receptors (setting [5]) stood at 1.4 nM; in experiment [2] it was 150 nM; in experiment [4] it was 9100 nM. In addition, the “Gastric Acid Inhibition %” value in experiment [3] is 47.1%.
Consider `CCCN(CCC)C1CCc2cccc(-c3cc(-c4ccccc4)no3)c2C1` (centres unmarked) [Example 6, 2-(Di-n-propylamino)-8-(3-phenylisoxazol-5-yl)-1,2,3,4-tetrahydronaphthalene hydrobromide], for which the figures for the IC50 (on 5HT1A receptors (setting [5]); in experiment [2] (setting [6])) were 72 nM and 750 nM, respectively.
Turning to `CCCN(CCC)C1CCc2cccc(-c3ccno3)c2C1.O=C(O)/C=C\C(=O)O` (centres unmarked) [Example 1, 2-(Di-n-propylamino)-8-(isoxazol-5-yl)-1,2,3,4-tetrahydronaphthalene maleate], the minimal effective dose with brain 5-HIAA levels (po) was found to be 3 mg/kg; with brain 5-HIAA levels (sc), 0.1 mg/kg; in experiment [1] it was 0.3 mg/kg. Moreover, the IC50 on 5HT1A receptors (setting [5]) came out at 0.44 nM; in experiment [4], 8100 nM. The “Gastric Acid Inhibition %” value in experiment [3] came out at 69.6%.
Take `Br.CCCN(CCC)C1CCc2cccc(-c3oncc3OC)c2C1` (centres unmarked) [Example 8, 2-(Di-n-propylamino)-8-(4-methoxyisoxazol-5-yl)-1,2,3,4-tetrahydronaphthalene hydrobromide]: the minimal effective dose in the experiment on brain 5-HIAA levels (sc) was 1 mg/kg; in experiment [1] it was greater than 1 mg/kg. In addition, the figures for the IC50 (at 5HT1A receptors (setting [5]); in experiment [2]) were 1.7 nM and 195 nM, respectively. The “Gastric Acid Inhibition %” value in experiment [3] worked out at 46.8%.
With `CCCN(CCC)C1CCc2cccc(O)c2C1` (centres unmarked) [8-OH DPAT, 8-hydroxy-2-dipropylamino-1,2,3,4-tetrahydronaphthalene, reference compound], the IC50 in experiment [2] was determined as 1940 nM; in experiment [4] it was 29800 nM. Moreover, the “Gastric Acid Inhibition %” value in experiment [3] was 72.4%.
For `CCCN(CCC)C1CCc2cccc(-c3cc(Br)no3)c2C1.O=C(O)/C=C\C(=O)O` (centres unmarked) [Example 2, 2-(Di-n-propylamino)-8-(3-bromoisoxazol-5-yl)-1,2,3,4-tetrahydronaphthalene maleate], the minimal effective dose (with brain 5-HIAA levels (sc); in experiment [1]) was greater than 1 mg/kg each time. The IC50 at 5HT1A receptors (setting [5]) was 2.5 nM; in experiment [2], 220 nM; in experiment [4] it was 4600 nM.
With `CCCN(CCC)C1CCc2cccc(-c3cc(SC)no3)c2C1` (centres unmarked) [Example 7, 2-(Di-n-propylamino)-8-(3-methylthioisoxazol-5-yl)-1,2,3,4-tetrahydronaphthalene maleate], the minimal effective dose was greater than 1 mg/kg with brain 5-HIAA levels (sc) and greater than 1 mg/kg in experiment [1] (minimum effective dose elevating serum corticosterone, one hour after treatment). For the same compound, the IC50 was determined as 1.2 nM on 5HT1A receptors and 173 nM in experiment [2] (setting [6]). Besides, the “Gastric Acid Inhibition %” value in experiment [3] came to 65.4%.
For the compound `CCCN(CCC)[C@H]1CCc2cccc(-c3ccno3)c2C1` [Example 9, S-(-)-8-(isoxazol-5-yl)-2-dipropylamino-1,2,3,4-tetrahydronaphthalene maleate], the minimal effective dose in the experiment with brain 5-HIAA levels (po) is 3 mg/kg. For the same compound, the IC50 on 5HT1A receptors is 0.2 nM; in experiment [2] (setting [6]), 180 nM; in experiment [4], 2500 nM. Besides, the “Gastric Acid Inhibition %” value in experiment [3] is 96.8%.
